# In patent US9458102B2 (priority 2011, dated 2016):
# Read-outs that look alike come from different tables or passages of the source.
# What was measured:
# [1] = target: T1, proteinase K (Parengyodontium album, UniProt P06873); assay: In vitro hydrolysis by proteinase K; format: in vitro ADME, Engyodontium album
# T1 construct: purchased Sigma
# Procedure: Hydrolysis products of 4-nitrophenyl acetate and BSA were detected as positive controls.
# (§1) All enzymatic assays were performed with 50 μM compound in 0.1M phosphate buffer, pH 7.4, at 37° C. with stirring, unless otherwise noted. Butyrylcholinesterase stock solutions from human serum (Sigma, St. Louis, Mo.) were prepared at 100 U/mL in 0.1 M phosphate buffer, pH 7.4, and stored at −20° C. until use. Hydrolysis was monitored on an 8452A diode array spectrophotometer (Hewlett-Packard). Product peak wavelength absorption was immediately monitored upon addition of compound. Absorbances for complete hydrolysis were determined when there were no further detectable changes. […] All hydrolysis assays were performed in triplicate, and final rate constants are expressed as the mean±SD of the three individually determined rate constants. In some experiments with compound 1, samples were taken at the beginning and end of the assay to verify the hydrolysis product and the completion of the reaction by HPLC. These samples were compared to compounds 1 and 3 on a C18 column eluted with 0.1% TFA in water/acetonitrile. Activity of chymotrypsin (bovine, Worthington Biochemical Co., 190 μg/mL) was verified with 90 μM 4-nitrophenyl acetate in 0.1 M HEPES solution, pH 6.5, at 37° C. with stirring. Hydrolysis product was monitored at 404 nm for 10 min. Activity of proteinase K (from Engyodontium album, Sigma, 165 μg/mL) was verified with 16.5 mg/mL bovine serum albumin in 0.1 M phosphate buffer, pH 7.4, at 37° C. Samples were taken at time point increments up to 2 hours when the reaction reached completion. Samples were analyzed with 12% SDS-PAGE, stained with 0.1% Coomassie Blue.
# [2] = target: heteromeric rod CNG channels consisting of CNGA1 and CNGB1 subunits (Bos taurus, UniProt Q00194+Q28181); assay: biochemical; format: cell-based; conditions: 2 mM cGMP; for Kd: Table 1, mean±SD, not corrected for ion accumulation
# heteromeric rod CNG channels consisting of CNGA1 and CNGB1 subunits, sequence (Q00194 whole entry): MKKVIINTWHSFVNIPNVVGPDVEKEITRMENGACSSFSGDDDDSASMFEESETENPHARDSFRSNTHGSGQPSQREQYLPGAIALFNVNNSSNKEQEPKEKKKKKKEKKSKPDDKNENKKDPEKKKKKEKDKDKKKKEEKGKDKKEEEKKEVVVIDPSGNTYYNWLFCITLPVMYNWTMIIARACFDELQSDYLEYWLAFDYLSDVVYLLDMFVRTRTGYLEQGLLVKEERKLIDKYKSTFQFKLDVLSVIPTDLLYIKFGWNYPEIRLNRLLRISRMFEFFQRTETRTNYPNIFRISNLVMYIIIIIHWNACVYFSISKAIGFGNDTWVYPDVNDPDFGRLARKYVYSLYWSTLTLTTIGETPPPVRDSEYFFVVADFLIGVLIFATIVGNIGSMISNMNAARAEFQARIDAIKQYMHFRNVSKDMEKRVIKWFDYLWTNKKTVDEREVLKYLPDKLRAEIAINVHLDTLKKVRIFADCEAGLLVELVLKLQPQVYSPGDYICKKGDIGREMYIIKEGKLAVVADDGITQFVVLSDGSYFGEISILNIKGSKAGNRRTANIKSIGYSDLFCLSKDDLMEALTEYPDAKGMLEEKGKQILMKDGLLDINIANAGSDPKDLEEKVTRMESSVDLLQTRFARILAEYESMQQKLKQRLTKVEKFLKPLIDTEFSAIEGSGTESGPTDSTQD
# heteromeric rod CNG channels consisting of CNGA1 and CNGB1 subunits, sequence (Q28181 whole entry): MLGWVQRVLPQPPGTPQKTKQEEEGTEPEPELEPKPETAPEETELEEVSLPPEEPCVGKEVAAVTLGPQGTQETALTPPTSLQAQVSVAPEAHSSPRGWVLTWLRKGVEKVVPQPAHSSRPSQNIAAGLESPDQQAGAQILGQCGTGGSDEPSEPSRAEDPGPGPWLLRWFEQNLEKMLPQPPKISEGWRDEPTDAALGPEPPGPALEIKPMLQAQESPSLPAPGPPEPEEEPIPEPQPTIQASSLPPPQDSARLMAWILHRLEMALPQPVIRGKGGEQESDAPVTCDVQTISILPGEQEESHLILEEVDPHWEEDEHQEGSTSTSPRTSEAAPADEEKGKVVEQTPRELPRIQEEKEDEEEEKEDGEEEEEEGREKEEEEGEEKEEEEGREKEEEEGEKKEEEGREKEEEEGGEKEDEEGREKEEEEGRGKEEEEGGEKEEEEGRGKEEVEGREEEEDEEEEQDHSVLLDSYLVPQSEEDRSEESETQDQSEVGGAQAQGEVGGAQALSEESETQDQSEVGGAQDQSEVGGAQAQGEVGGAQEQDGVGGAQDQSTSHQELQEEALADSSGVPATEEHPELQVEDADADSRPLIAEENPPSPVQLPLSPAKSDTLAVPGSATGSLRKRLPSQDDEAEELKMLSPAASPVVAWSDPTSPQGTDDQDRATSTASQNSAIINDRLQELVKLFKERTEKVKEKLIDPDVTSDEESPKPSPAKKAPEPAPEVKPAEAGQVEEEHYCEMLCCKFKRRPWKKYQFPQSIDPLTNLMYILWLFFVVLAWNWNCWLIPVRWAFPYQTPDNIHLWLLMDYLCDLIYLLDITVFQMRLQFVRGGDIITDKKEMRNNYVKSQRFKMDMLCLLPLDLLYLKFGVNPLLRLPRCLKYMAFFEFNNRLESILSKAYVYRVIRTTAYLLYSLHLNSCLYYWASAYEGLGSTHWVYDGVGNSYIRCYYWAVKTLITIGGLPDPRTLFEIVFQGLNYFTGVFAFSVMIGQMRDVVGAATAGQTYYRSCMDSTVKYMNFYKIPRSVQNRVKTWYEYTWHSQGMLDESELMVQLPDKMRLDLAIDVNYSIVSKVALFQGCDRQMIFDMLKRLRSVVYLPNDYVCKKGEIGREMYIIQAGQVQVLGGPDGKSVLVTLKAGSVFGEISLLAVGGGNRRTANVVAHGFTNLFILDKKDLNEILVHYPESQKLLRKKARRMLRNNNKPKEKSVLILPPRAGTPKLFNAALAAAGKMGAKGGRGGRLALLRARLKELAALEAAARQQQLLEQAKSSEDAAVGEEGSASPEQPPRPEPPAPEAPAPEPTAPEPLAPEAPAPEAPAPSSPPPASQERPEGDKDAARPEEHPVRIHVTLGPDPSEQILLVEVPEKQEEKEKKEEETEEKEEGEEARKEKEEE
# Procedure: Currents were elicited by a voltage step protocol from 0 to −50 to +50 mV (See FIG. 1) in the presence of 2 mM cGMP or 2 mM cGMP and compound (5 μM). Time scale is shown in the lower left-hand corner of the panel and FIG. 1, and the zero current level is indicated by the dotted line.
# The solid line indicates the fit of the equation for block at a single binding site.
# Time scale is shown in the lower left-hand corner of the panel and FIG. 1, and the zero current level is indicated by the dotted line. […] Solid line indicates the fit of the equation for block at a single binding site.
# The effectiveness of retinal rod CNG channel current block by the disclosed compounds was tested in Xenopus oocyte preparations. Excised, inside-out patches pulled from oocytes expressed heteromeric rod CNG channels consisting of CNGA1 and CNGB1 subunits. […] CNG channel currents were elicited by a voltage step protocol to −50 and +50 mV (FIG. 1). The apparent KD value at each membrane potential was estimated first by determining I+B and I−B at steady state, where I+B is the current in the presence of blocker and I−B is current in the absence of blocker, for different blocker concentrations ([B]).
# Ovaries were surgically removed from adult Xenopus laevis females (Xenopus Express; Brooksville, Fla.) anesthetized with ice-cold 0.1% tricaine and 0.1% NaHCO3 solution. Oocytes were chemically released from ovarian follicles in Ca^2+-free Barth's solution (88 mM NaCl, 1 mM KCl, 2.4 mM NaHCO3, 0.82 mM MgSO4, 7.5 mM Tris, 2.5 mM sodium pyruvate, 100 U/mL penicillin, and 100 μg/mL streptomycin, pH 7.4) containing 0.1 U/mL Liberase Blendzymes (Roche, Indianapolis, Ind.). Stages IV and V oocytes were visually sorted and stored in ND-96 (96 mM NaCl, 2 mM KCl, 1.8 mM CaCl2, 1 mM MgCl2, 5 mM HEPES, 2.5 mM sodium pyruvate, 100 U/mL penicillin, and 100 μg/mL streptomycin, pH 7.4) at 16° C. Oocytes were co-injected the following day with 33 ng of CNGA1 and 67 ng of CNGB1 cRNA […] synthesized from linearized pGEM-HE expression vectors containing the channel subunit cDNA sequence (Strassmaier T & Karpen J, J Med Chem 50, 4186-4194, (2007), incorporated by reference herein) using T7 mMESSAGE mMACHINE® (Ambion, Austin, Tex.). Injected oocytes were incubated at 18° C. the first day and 16° C. for the remaining days.
# Recordings from inside-out excised patches were made 3-7 days after oocyte injection on an Axopatch 1D® amplifier (Axon Instruments, Foster City, Calif.). Briefly, oocyte vitelline membranes were removed in solution containing 200 mM K aspartate, 20 mM KCl, 1 mM MgCl2, 10 mM EGTA, 10 mM HEPES, pH 7.4. Oocytes were placed in a recording chamber in a solution containing 130 mM NaCl, 2 mM HEPES, 0.02 mM EDTA, 1 mM EGTA, pH 7.6, and borosilicate glass electrodes (1-3 MΩ) were filled with identical solution. Macroscopic currents were filtered at 1 kHz and sampled at 2 kHz using pCLAMP 8.0® software (Axon Instruments). Channels were either fully activated with 2 mM or partially activated with 50 and 100 μM cGMP. […] Glass syringes and Teflon tubing were used to minimize the binding of compounds to surfaces; concentrations passing through the perfusion system were verified by absorbance.
# [3] = target: T2, Butyrylcholinesterase purified from human blood serum (Homo sapiens, UniProt P06276); assay: In vitro hydrolysis by serum cholinesterase (butyrylcholinesterase); format: in vitro ADME; conditions: 50 μM compound, 0.1M phosphate buffer pH 7.4, 37° C.; mean±SD of triplicate
# T2 construct: Butyrylcholinesterase purified from human blood serum; purchased Sigma; host or cells: purified from human blood serum
# T2 sequence (P06276 29-602): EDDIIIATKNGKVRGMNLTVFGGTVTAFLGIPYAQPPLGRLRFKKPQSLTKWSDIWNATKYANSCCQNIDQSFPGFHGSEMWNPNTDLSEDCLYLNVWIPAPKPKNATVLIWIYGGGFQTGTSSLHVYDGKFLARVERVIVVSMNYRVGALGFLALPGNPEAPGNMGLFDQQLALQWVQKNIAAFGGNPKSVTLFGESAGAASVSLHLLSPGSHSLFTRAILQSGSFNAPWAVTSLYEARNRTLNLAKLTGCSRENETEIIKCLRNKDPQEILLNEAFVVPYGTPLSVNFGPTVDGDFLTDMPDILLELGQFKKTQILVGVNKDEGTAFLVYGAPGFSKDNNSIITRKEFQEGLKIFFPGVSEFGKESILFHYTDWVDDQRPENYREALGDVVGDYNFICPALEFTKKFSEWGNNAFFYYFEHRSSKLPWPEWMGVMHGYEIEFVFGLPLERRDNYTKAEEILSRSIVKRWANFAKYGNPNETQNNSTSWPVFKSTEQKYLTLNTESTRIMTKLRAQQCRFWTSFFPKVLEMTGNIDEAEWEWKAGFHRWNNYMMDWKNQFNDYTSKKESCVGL
# Procedure: Compound 1 is rapidly hydrolyzed by butyrylcholinesterase in the bloodstream. Butyrylcholinesterase purified from human blood serum was used to test the resistance of the disclosed compounds to hydrolysis.
# as §1
# [4] = target: T3, chymotrypsin (Bos taurus, UniProt P00766); assay: In vitro hydrolysis by chymotrypsin; format: in vitro ADME
# T3 construct: purchased Worthington Biochemical Co
# Procedure: as §1, with “In some experiments with compound 1, samples were taken at the beginning and end of the assay to verify the hydrolysis product and the completion of the reaction by HPLC. These samples were compared to compounds 1 and 3 on a C18 column eluted with 0.1% TFA in water/acetonitrile.” left out
# T1 sequence (P06873 106-384): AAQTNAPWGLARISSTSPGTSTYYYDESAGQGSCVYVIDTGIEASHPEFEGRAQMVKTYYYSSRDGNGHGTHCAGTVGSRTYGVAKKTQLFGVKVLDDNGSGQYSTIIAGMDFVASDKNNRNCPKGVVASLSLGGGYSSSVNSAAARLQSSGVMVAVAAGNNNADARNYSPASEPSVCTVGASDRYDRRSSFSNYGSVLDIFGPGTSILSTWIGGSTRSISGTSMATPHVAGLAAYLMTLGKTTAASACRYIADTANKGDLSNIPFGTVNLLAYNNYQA
Compound,hydrolysis products with proteinase K [1],"Kd ([2]; +50 mV, read-out: KD(+50)) [µM]","Kd ([2]; −50 mV, read-out: KD(−50)) [µM]",Hydrolysis rate [3] [nmol/min/mg],hydrolysis products with chymotrypsin [4],voltage dependence of block ([2]; +50 vs −50 mV)
"CCCCNc1ccc(C(=O)NCCN(C)C)cc1 [Compound 6, 4-(Butylamino)-N-(2-(dimethylamino)ethyl)benzamide]",not able to generate any detectable hydrolysis products,4.4 ± 2,28.6 ± 13.1,8.4 ± 3.5,not able to generate any detectable hydrolysis products,
"CCCCCCCCNc1ccc(C(=O)NCCN(C)C)cc1 [Compound 7, 4-(Octylamino)-N-(2-(dimethylamino)ethyl)benzamide]",not able to generate any detectable hydrolysis products,,,1.2 ± 0.5,not able to generate any detectable hydrolysis products,"appreciably less voltage dependent than compound 1, 6, and 8"
